“Also recorded” adds a separate entry of the source. Ends that are not written are not given here.
Key:
BSA-MMAF [1] = assay: Peptide competitive ELISA; type: binding; conditions: peptide 2000 nM, truncated free MMAE or null-ADC from 1000 nM (FIG. 35)
Protocol: • (1) Antigen coating: BSA-MMAF was coated onto a microplate using coating buffer at a concentration of […], and placed at 4°C overnight for about 16 h. (2) Blocking: The microplate coated with antigen was washed once with PBST using a plate washer, and blocked by adding Casein solution at 200 µL/well at room temperature for 1 h. (3) Primary antibody incubation: The plate was washed 3 times with PBST, and a premixture of peptide sample diluted with Casein solution and truncated free MMAE/null-ADC was added. The final concentration of the peptide sample was 2000 nM. […] The positive control was molecule ABC3320 with a final concentration of 1.28 nM. Incubation was performed at room temperature for 2 h. (4) Secondary antibody incubation: The plate was washed 3 times with PBST, and secondary antibody Goat pAb to Hu IgG(HRP) (1:10000) diluted with Casein solution was added and incubated at room temperature for 1 h. (5) Color development: The plate was washed 6 times with PBST, 100 µL of TMB color development solution was added to each well, and color was developed for 2 to 10 min protected from light. (6) Termination: 100 µL of 2 M H2SO4 was added to each well to terminate the reaction. The OD450 value was read using a microplate reader, recorded, and saved. Finally, the data were analyzed using GraphPad software.

OVA-MMAF = assay: Peptide ELISA binding experiment (Fc fusion peptides); conditions: antigens coated 1 µg/mL, peptide from 2000 nM (FIG. 34)
Protocol: The constructed Fc fusion peptide molecules PP-1A-#84 to #95 were used for identification of binding specificity to OVA-MMAF and OVA, to determine molecules with better specific binding activity to MMAE. […] Table 20. Amino acid sequence listing of PP-1A-#85 (peptide) to PP-1A-#94 (peptide) and PP-1A-#85 (Fc fusion peptide)
• (1) Antigen coating: MMAF conjugated protein and negative protein were coated onto a microplate using coating buffer at a concentration of 1 µg/mL, and the plate was placed at 4°C overnight for about 16 h. (2) Blocking: The plate coated with antigen was washed once with PBST using a plate washer, and blocked by adding Casein solution at 200 µL/well at room temperature for 1 h. (3) Primary antibody incubation: The plate was washed 3 times with PBST, and peptide samples with an initial concentration of 2000 nM diluted in a 5-fold gradient using Casein solution were added. The negative control was the Fc.uIgG1 molecule. Incubation was performed at room temperature for 2 h. (4) Secondary antibody incubation: The plate was washed 3 times with PBST, and secondary antibody Goat pAb to Hu IgG(HRP) (1:10000) (Abcam, Cat. Ab97225) diluted with Casein solution was added and incubated at room temperature for 1 h. (5) Color development: The plate was washed 6 times with PBST, 100 µL of TMB color development solution was added to each well, and color was developed for 2 to 10 min protected from light. (6) Termination: 100 µL of 2 M H2SO4 was added to each well to terminate the reaction. The OD450 value was read using a microplate reader, recorded, and saved. Finally, the data were analyzed using GraphPad software.

NCI-H292 tumor cells = assay: Inhibitory effect of DXD-binding peptides on DXD cytotoxicity; type: cell-based; conditions: DXD 1 ng/mL, peptides from 100 µg/mL, 3 days (FIG. 41)
Protocol: NCI-H292 tumor cells were used to detect the inhibitory effect of DXD-binding peptides on DXD cytotoxicity.
NCI-H292 cells were digested, counted, and plated at 5E3 cells/well, with 60 µL per well, and allowed to adhere in a 37°C incubator. Peptide molecules and nonsense control antibody Null IgG were 2-fold diluted for 7 gradients starting at a concentration of 100 µg/mL The DXD concentration was fixed to 1 ng/mL. The test substances were incubated with DXD at room temperature for 2 h. The incubated samples were added into the 96-well plate at 60 µL/well and cultured in a 37°C incubator for 3 days. 100 µL of Cell Counting-Lite 2.0 Reagent was added to each well, and the plate was shaken on a shaker for 10 min. The fluorescence signal was read using a microplate reader.

OVA-DXD = assay: Dot blot screening for DXD specific binding peptides; conditions: OVA or OVA-DXD 20 µg/mL spotted (FIG. 40)
Protocol: Sample preparation: 50 mL of bacterial liquid induced with IPTG overnight (16°C, 16 h) was collected by centrifugation at 5000 rpm for 5 min, and the supernatant was discarded. 7 mL of PBS was added to resuspend the bacterial pellet, and it was disrupted at 200 W for 5 min. It was centrifuged at 12,000 rpm for 20 min, and the supernatant was collected for later use. Spotting: A nylon membrane (Beyotime, CAT#FFN10) was cut to an appropriate size and marked with lines. 3 µL of antigen sample (OVA or OVA-DXD, 20 µg/mL) was spotted onto the membrane using a pipette. The consistency of the spotted volume and the spacing between spots were carefully dealt with to avoid mutual interference between samples. After spotting, the membrane was allowed to dry naturally at room temperature. Blocking: The dried membrane was placed in a blocking solution (5% skim milk) and blocked on a shaker at room temperature for 1 to 2 h. The purpose of blocking was to prevent non-specific binding and reduce background signals. Washing: After incubation of the primary antibody, the membrane was thoroughly washed with washing buffer (PBST) 3 times for 5 min each time to remove unbound primary antibody. Secondary antibody incubation: The membrane was placed in a solution containing appropriately diluted secondary antibody and incubated at room temperature for 1 to 2 h. The secondary antibody was an antibody against the primary antibody, usually carrying a detectable label such as horseradish peroxidase (HRP) or alkaline phosphatase (AP). Washing: The membrane was washed again with washing buffer to remove unbound secondary antibody, 3 times for 5 min each time. Color development: An appropriate amount of ECL color development substrate solution was applied to the membrane, and the reaction was performed at room temperature protected from light. The color development was observed using a gel imager, and the membrane was photographed and recorded. Through observing the presence or absence and the color depth of the spots, the target protein in the sample can be qualitatively or semi-quantitatively analyzed.

Nectin-4 = Nectin-4 (UniProt Q96NY8); assay: binding assay read as OD450; method not described
OVA-MMAF and BSA-MMAF = assay: Peptide ELISA binding experiment (PP-1B Fc fusion peptides); conditions: FIG. 42
Protocol: The binding of the constructed Fc fusion peptide molecules PP-1B-#70 to #74 with OVA-MMAF and OVA was identified respectively to screen for molecules with better specific binding specificity to MMAE. After the first round of primary screening was completed, the binding specificity of #74 with OVA-MMAF and BSA-MMAF was further verified.
• (1) Antigen coating: MMAF conjugated protein and negative protein were coated onto a microplate using coating buffer at a concentration of 1 µg/mL, and the plate was placed at 4°C overnight for about 16 h. (2) Blocking: The microplate coated with antigen was washed once with PBST using a plate washer, and blocked by adding Casein solution at 200 µL/well at room temperature for 1 h. (3) Primary antibody incubation: The plate was washed 3 times with PBST, and peptide samples with an initial concentration of 2000 nM diluted in a 5-fold gradient using Casein solution were added and the plate incubated at room temperature for 2 h. (4) Secondary antibody incubation: The plate was washed 3 times with PBST, and secondary antibody Goat pAb to Hu IgG(HRP) (1:10000) (Abcam, Cat. Ab97225) diluted with Casein solution was added and the plate was incubated at room temperature for 1 h. […] The OD450 value was read using a microplate reader, recorded, and saved. Finally, the data were analyzed using GraphPad software.

BSA-MMAF [2] = assay: Peptide competitive ELISA (PP-1B-#74); type: binding; conditions: FIG. 43
Protocol: Based on the peptide molecule binding activity results, molecule PP-1B-#74 was further verified for its specific binding to MMAE through competitive experiments.
• (1) Antigen coating: BSA-MMAF was coated onto a microplate using coating buffer at a concentration of 1 µg/mL, and the plate was placed at 4°C overnight for about 16 h. (2) Blocking: The microplate coated with antigen was washed once with PBST using a plate washer, and blocked by adding Casein solution at 200 µL/well at room temperature for 1 h. (3) Primary antibody incubation: The plate was washed 3 times with PBST, and a premixture of peptide sample diluted with Casein solution and truncated free MMAE/null-ADC was added. The final concentration of the peptide sample was 2000 nM. The initial concentration of truncated free MMAE and null-ADC was 1000 nM, diluted in a 10-fold gradient, and incubation was performed at room temperature for 2 h. (4) Secondary antibody incubation: The plate was washed 3 times with PBST, and secondary antibody Goat pAb to Hu IgG(HRP) (1:10000) diluted with Casein solution was added and the plate was incubated at room temperature for 1 h. […] Termination: 100 µL of 2 M H2SO4 was added to each well to terminate the reaction, and the OD450 value was read using a microplate reader, recorded, and saved. (6) Finally, the data were analyzed using GraphPad software.

Sequence of Nectin-4 (Q96NY8 32-349 limits assumed): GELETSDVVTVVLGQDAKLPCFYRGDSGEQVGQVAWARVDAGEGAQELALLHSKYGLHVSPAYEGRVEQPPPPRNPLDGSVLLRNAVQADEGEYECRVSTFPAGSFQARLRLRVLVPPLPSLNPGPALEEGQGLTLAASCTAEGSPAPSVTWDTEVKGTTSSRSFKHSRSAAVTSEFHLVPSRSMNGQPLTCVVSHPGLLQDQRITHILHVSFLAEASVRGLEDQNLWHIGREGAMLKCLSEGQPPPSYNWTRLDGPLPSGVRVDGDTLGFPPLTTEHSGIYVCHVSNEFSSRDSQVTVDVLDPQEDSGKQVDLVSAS

| Substance | specific binding to OVA-MMAF and OVA (OVA-MMAF) | specific binding to DXD (dot blot) (OVA-DXD) | also measured |
| --- | --- | --- | --- |
| ACDESHGVPHTSGMC [PP-1A-#85] | good binding activity to OVA-MMAF and did not bind to OVA | – | competitive binding of free MMAE (BSA-MMAF [1]): blocked by truncated free MMAE, but not blocked by null-ADC |
| ACGSLSWRNCGSYRC [PP-1A-#417] | – | capable of specifically binding to DXD | cytoprotective effect (NCI-H292 tumor cells): exhibited a cytoprotective effect |
| ACHWNAKADYGSFVC (cysteine pairing not given here; also: Fc fusion) [PP-1A-#91] | specific binding to OVA-MMAF, but the binding activity was relatively weak | – | – |
| ACLACWTSRSC [PP-1A-#414] | – | capable of specifically binding to DXD | cytoprotective effect (NCI-H292 tumor cells): exhibited a cytoprotective effect; also recorded: had the best activity |
| ACLPNSLGPSAMSSC [PP-1A-#86] | good binding activity to OVA-MMAF and did not bind to OVA | – | – |
| ACLRNSPRKQC (cysteine pairing not given here; also: Fc fusion) [PP-1A-#90] | specific binding to OVA-MMAF, but the binding activity was relatively weak | – | – |
| ACLSPWLFFWC [PP-1A-#415] | – | capable of specifically binding to DXD | cytoprotective effect (NCI-H292 tumor cells): exhibited a cytoprotective effect |
| ACRLTGPDWLHTQRC (cysteine pairing not given here; also: Fc fusion) [PP-1A-#88] | specific binding to OVA-MMAF, but the binding activity was relatively weak | – | – |
| ACSQCVLLPPPQSVC [PP-1A-#431] | – | capable of specifically binding to DXD | – |
| ACTGCSRTHSPRSRC (cysteine pairing not given here; also: Fc fusion) [PP-1A-#92] | specific binding to OVA-MMAF, but the binding activity was relatively weak | – | – |
| ACTPALRSLAC (cysteine pairing not given here; also: Fc fusion) [PP-1A-#89] | good binding activity to OVA-MMAF and did not bind to OVA | – | – |
| ACVLSPHPQAC [PP-1A-#93] | good binding activity to OVA-MMAF and did not bind to OVA | – | competitive binding of free MMAE (BSA-MMAF [1]): blocked by truncated free MMAE, but not blocked by null-ADC |
| ACWTLWLPLLPLGSC [PP-1A-#428] | – | capable of specifically binding to DXD | – |
| ACYPFGNPRGVRPSC [PP-1A-#426] | – | capable of specifically binding to DXD | – |
| AHNVEILPPFDYTLS [PP-1A-#358] | – | capable of specifically binding to DXD | – |
| APPTFPVSTSVVISR [PP-1A-#367] | – | capable of specifically binding to DXD | – |
| Enfortumab vedotin (in-house) (antibody) | – | – | Top OD450 (Nectin-4): 1.23 OD450 |
| ILTTVNVVPNTIHVR [PP-1A-#340] | – | capable of specifically binding to DXD | cytoprotective effect (NCI-H292 tumor cells): exhibited a cytoprotective effect |
| LTVAMITTSRITTSN [PP-1A-#362] | – | capable of specifically binding to DXD | – |
| VALTWYYPIYLFATR [PP-1A-#330] | – | capable of specifically binding to DXD | – |
| YYVAWRW [PP-1B-#74] | – | – | specific binding to OVA-MMAF and BSA-MMAF (OVA-MMAF and BSA-MMAF): able to specifically bind to OVA-MMAF and BSA-MMAF; specific binding to MMAE (competitive ELISA) (BSA-MMAF [2]): able to specifically bind to MMAE |
| hIgG1 (antibody) | – | – | Top OD450 (Nectin-4): 0 OD450 |
